What was measured:
Botrytis cinerea = test: In vivo test on Botrytis cinerea (cucumber grey mould), cucumber plants; settings: 330 ppm; for effectiveness on Botrytis cinerea: comparison compounds of WO 01/11965
Description: The active ingredient tested is prepared by potter homogenisation in a concentrated suspension type formulation at 100 g/l. This suspension is then diluted with water to obtain the desired active material concentration.
Cucumber plants (Marketer variety) in starter cups, sown on a 50/50 peat soil-pozzolana substrate and grown at 18-20° C., are treated at the cotyledon Z11 stage by spraying with the aqueous suspension described above. Plants, used as controls, are treated with an aqueous solution not containing the active material.
After 24 hours, the plants are contaminated by depositing drops of an aqueous suspension of Botrytis cinerea spores (150,000 spores per ml) on upper surface of the leaves. The spores are collected from a 15-day-old culture and are suspended in a nutrient solution composed of: • 20 g/L of gelatin • 50 g/L of cane sugar • 2 g/L of NH4NO3 • 1 g/L of KH2PO4
The contaminated cucumber plants are settled for 5/7 days in a climatic room at 15-11° C. (day/night) and at 80% relative humidity.
Grading is carried out 5/7 days after the contamination, in comparison with the control plants. Under these conditions, good (at least 50%) or total protection is observed at a dose of 330 ppm with the following compounds: 3.

Peronospora parasitica = test: Efficacy against Peronospora parasitica; assay type: in vivo; settings: 330 ppm, comparison compound of WO 01/11965
Alternaria brassicae = test: In vivo test on Alternaria brassicae (leaf spot of crucifers), radish plants; settings: 330 ppm, comparison compounds of WO 01/11965
Description: The active ingredient tested is prepared by potter homogenisation in a concentrated suspension type formulation at 100 g/l. […] Radish plants (Pernot variety) in starter cups, sown on a 50/50 peat soil-pozzolana substrate and grown at 18-20° C., are treated at the cotyledon stage by spraying with the aqueous suspension described above. Plants, used as controls, are treated with an aqueous solution not containing the active material. After 24 hours, the plants are contaminated by spraying them with an aqueous suspension of Alternaria brassicae spores (40,000 spores per cm^3). The spores are collected from a 12 to 13 days-old culture. The contaminated radish plants are incubated for 6-7 days at about 18° C., under a humid atmosphere. Grading is carried out 6 to 7 days after the contamination, in comparison with the control plants. Under these conditions, good (at least 50%) or total protection is observed at a dose of 330 ppm with the following compounds: 1, 2, 3 and 4.

| SMILES | protection (good, at least 50%, or total) (Botrytis cinerea; preventive spray on cucumber plants, grading 5/7 days after contamination, versus control plants) | efficacy against Peronospora parasitica (Peronospora parasitica) | effectiveness on Botrytis cinerea (Botrytis cinerea) | effectiveness on Alternaria brassicae (Alternaria brassicae) |
| --- | --- | --- | --- | --- |
| O=C(NCCc1cc(F)ncc1F)c1ccccc1C(F)(F)F [Compound 3] | at least 50% | – | – | – |
| O=C(Cc1cccs1)NCc1ncc(C(F)(F)F)cc1Cl [compound 101, N-{[3-chloro-5-(trifluoromethyl)-2-pyridinyl]methyl}-5-thienylacetamide] | – | no efficacy | no efficacy | poor efficacy |
| CCNC(=O)C(Cc1ncc(C(F)(F)F)cc1Cl)NC(=O)c1ccccc1 (stereo not shown) [compound 304, N-{1-ethylcarbamoyl-2-[3-chloro-5-(trifluoromethyl)-2-pyridinyl]-ethyl}-benzamide] | – | – | zero effectiveness | – |
| CCNC(=O)C(Cc1ncc(C(F)(F)F)cc1Cl)NC(=O)c1ccc(Cl)cc1 (stereo not shown) [compound 306, N-{1-ethylcarbamoyl-2-[3-chloro-5-(trifluoromethyl)-2-pyridinyl]ethyl}-4-chlorobenzamide] | – | – | zero effectiveness | – |
| CCNC(=O)C(Cc1ncc(C(F)(F)F)cc1Cl)NC(=O)c1cccc([N+](=O)[O-])c1 (stereo not shown) [compound 307, N-{1-ethylcarbamoyl-2-[3-chloro-5-(trifluoromethyl)-2-pyridinyl]ethyl}-3-nitrobenzamide] | – | – | zero effectiveness | poor effectiveness |
| CCNC(=O)C(Cc1ncc(C(F)(F)F)cc1Cl)NC(=O)c1ccccc1Br (stereo not shown) [compound 310, N-{1-ethylcarbamoyl-2-[3-chloro-5-(trifluoromethyl)-2-pyridinyl]ethyl}-2-bromobenzamide] | – | – | zero effectiveness | – |
| CNC(=O)C(Cc1ncc(C(F)(F)F)cc1Cl)NC(=O)c1ccccc1 (stereo not shown) [compound 314, N-{1-methylcarbamoyl-2-[3-chloro-5-(trifluoromethyl)-2-pyridinyl]ethyl}-benzamide] | – | – | zero effectiveness | – |
| CNC(=O)C(Cc1ncc(C(F)(F)F)cc1Cl)NC(=O)c1ccc(OC)cc1 (stereo not shown) [compound 315, N-{1-methylcarbamoyl-2-[3-chloro-5-(trifluoromethyl)-2-pyridinyl]ethyl}-4-methoxybenzamide] | – | – | zero effectiveness | – |
| CNC(=O)C(Cc1ncc(C(F)(F)F)cc1Cl)NC(=O)c1ccc(-c2ccccc2)cc1 (stereo not shown) [compound 316, N-{1-methylcarbamoyl-2-[3-chloro-5-(trifluoromethyl)-2-pyridinyl]-ethyl}-4-phenylbenzamide] | – | – | zero effectiveness | poor effectiveness |

From patent publication US20070249690A1, “N-[2-(4-Pyridinyl)Ethyl]Benzamide Derivatives as Fungicides” (priority 2004, published 2007)
